“And” between values parts separate entries of the source, which are not always exact repeats. Equal values may be shown once. “Also recorded” adds a separate entry of the source.
How the values were obtained:
[1] = test system: patients with PD and constipation; assay: Bowel function (prokinetic response, stool diary indices), Phase 2 trial; assay type: in vivo, human; conditions: for Cumulative prokinetic response rate (CSBM within 24 hours of dosing): Stage 1, single dose; for Prokinetic response rate (CSBM within 24 hours of dosing on at least 2 of 3 days): Stage 2, daily dosing; for CSBM, weekly average: baseline 1.2 (0.90); for PAC-SYM: baseline 1.3 (0.45); for SBM, weekly average: baseline 2.6 (1.45)
Description: Following successful screening, all subjects underwent a 14-day run-in period where the degree of constipation was assessed through a validated daily log (Zinsmeister et al. 2013) establishing baseline CSBMs/week. Subjects with an average of <3 CSBMs/week proceeded to dosing.
Tolerability limits included diarrhea or vomiting.
In Stage 2, 34 patients were evaluated.
The primary efficacy outcome variable was whether or not a subject was a “success” or “failure”. This is an endpoint based on subject diary entries for the “fixed dose” period prior to the endpoint assessment defined as average complete stool frequency increase by 1 or more over baseline, or 3 or more complete spontaneous stools/week. The subject was deemed a “success” if s/he met one or more of the criteria listed above, otherwise the subject was deemed a “failure”. The primary analysis was based on all subjects with a baseline assessment and an assessment at the end of the “fixed-dose” period and was a comparison of the proportion of successes with 0.10 (the null hypothesis corresponding to no treatment effect).

[2] = test system: patients with PD; assay: Circadian rhythm of wrist skin temperature; assay type: in vivo, human; conditions: oral, 12 patients with evaluable data
Description: (6) I-Button Temperature Assessment. The I-Button is a small, rugged self-sufficient system that measures temperature and records the results in a protected memory section. The Thermochron I-Button DS1921H (Maxim Integrated, Dallas, Tex.) was used for skin temperature measurement. I-Buttons were programmed to sample every 10 mins., and attached to a double-sided cotton sport wrist band using Velcro, with the sensor face of the I-Button placed over the inside of the wrist, on the radial artery of the dominant hand. Subjects removed and replaced the data logger when necessary (i.e., to have a bath or shower). […] From the collected data, the mesor, amplitude, acrophase (time of peak temperature), Rayleight test (an index of interdaily stability), mean waveforms are calculated);
(§1) Assessments were made at baseline and at the end of the fixed dose and washout periods. Circadian system status was evaluated by continuously monitoring wrist skin temperature (Thermochron iButton DS1921H; Maxim, Dallas) following published procedures (Sarabia et al. 2008).
Circadian rhythm of skin temperature was evaluable in 12 patients (i.e., those who had recordings that extended from baseline through washout). Circadian system functionality was evaluated by continuously monitoring wrist skin temperature using a temperature sensor (Thermochron iButton DS1921H; Maxim, Dallas, Tex.) (Sarabia et al. 2008). […]

[3] = Preclinical oral dosing studies in dogs; conditions: dog, in vivo
[4] = test system: patients with PD; assay: CNS symptoms in Stage 2 (UPDRS, MMSE, PDHQ, BDI-II, direct questioning); assay type: in vivo, human; conditions: for PDHQ / BDI-II / UPDRS Part 2 (Daily living) / MMSE / UPDRS Part 3 (Motor): mean (SD); for PDHQ: baseline 1.3 (2.99); for BDI-II: baseline 10.9 (7.12); for UPDRS Part 2 (Daily living): baseline 14.9 (8.11); for MMSE: baseline 28.4 (1.75); for UPDRS Part 3 (Motor): baseline 35.3 (14.35)
Excerpt: Exploratory end-points, in addition to constipation, included for example, (i) depression assessed using the Beck Depression Inventory (BDI-II) (Steer et al. 2000) and Unified Parkinson's Disease Rating Scale (UPDRS); (ii) cognition assessed using the Mini Mental State Examination (MMSE) (Palsteia et al. 2018), Unified Parkinson's Disease Rating Scale (UPDRS), and Trail Making Test (TMT); (iii) sleep and REM-behavior disorder (RBD) using a daily sleep diary, I-Button Temperature Assessment, a REM sleep behavior disorder (RBD) questionnaire (RBDQ) (Stiasny-Kolster et al. 2007), and the UPDRS; (iv) hallucinations assessed using the PD hallucinations questionnaire (PDHQ) (Papapetropoulos et al. 2008), the UPDRS, and direct questioning; (v) fatigue using the Parkinson's Disease Fatigue Scale (PFS-16) and the UPDRS; (vi) motor functions using the UPDRS; and (vii) non-motor functions using the UPDRS.
as §1
An exploratory analysis was done with respect to the sleep data, the body temperature data, mood, fatigue, hallucinations, cognition and other motor and non-motor symptoms of PD. Continuous measurements within a subject were compared with a paired t-test and continuous measurements between subject groups were compared with a two-group t-test. Categorical data were compared with a chi-squared test or a Fisher's exact test if the expected cell counts are too small for a chi-squared test.
CNS symptoms were evaluated at baseline and at the end of the fixed dose period and the wash-out period (Table 13). Total UPDRS score was 64.4 at baseline, 60.6 at the end of the fixed dose period and 55.7 at the end of the wash-out period (p=0.002); similarly, the motor component of the UPDRS improved from 35.3 at baseline to 33.3 at the end of fixed dose to 30.2 at the end of wash-out (p=0.006). MMSE improved from 28.4 at baseline to 28.7 during treatment and to 29.3 during wash-out (p=0.0006). […] PDHQ improved from 1.3 at baseline to 1.8 during treatment and 0.9 during wash-out (p=0.03). Hallucinations were reported by 5 patients at baseline and delusions in 1 patient. […] The frequency of arm or leg thrashing reported in the sleep diary diminished progressively from 2.2 episodes/week at baseline to 0 at maximal dose. […] Unlike stool-related indices, the improvement in many CNS symptoms persisted during wash-out.

[5] = Stage 2, n = 34, fixed dose, mean (SD)
[6] = Stage 2, n = 34, fixed dose, listed as Squalamine (ENT-01)

Compound: CC(C)[C@@H](CC[C@@H](C)[C@H]1CC[C@H]2[C@@H]3[C@H](O)C[C@H]4C[C@@H](NCCCNCCCCN)CC[C@]4(C)[C@H]3CC[C@]12C)OS(=O)(=O)O (single isomer, unassigned) [squalamine (ENT-01)]
- Patients responding within the effective dose range ([1]; 75 mg to 250 mg): 85%
- Cumulative prokinetic response rate (CSBM within 24 hours of dosing) ([1]; 25 mg): 25%
- Cumulative prokinetic response rate (CSBM within 24 hours of dosing) ([1]; 200 mg (maximum)): 80%
- Median efficacious dose ([1]; Stage 2): 100 mg
- Prokinetic response rate (CSBM within 24 hours of dosing on at least 2 of 3 days) ([1]; 75 mg): 26%
- Prokinetic response rate (CSBM within 24 hours of dosing on at least 2 of 3 days) ([1]; 250 mg): 85.3%
- CSBM, weekly average [1, 5]: 3.8 /week and 3.8 (2.4) /week
- PAC-SYM [1, 5]: 1.1 (0.49)
- Suppository use / rescue medication, weekly average ([1]; Stage 2, n = 34, fixed dose, mean (SD), baseline 1.8 (1.92)): 0.3 /week
- SBM, weekly average [1, 5]: 4.5 /week
- CSBM, weekly average ([1]; Stage 2, wash-out, mean (SD)): 1.8 (1.19) /week
- PAC-SYM ([1]; Stage 2, wash-out, mean (SD)): 1.1 (0.60)
- PAC-QOL ([1]; Stage 2, wash-out, mean (SD), baseline 1.4 (0.49)): 1.2 (0.63)
- Rescue meds, weekly average ([1]; Stage 2, wash-out, mean (SD), baseline 1.8 (1.92)): 1.0 (1.40) /week
- SBM, weekly average ([1]; Stage 2, wash-out, mean (SD)): 3.2 (1.80) /week
- Stool consistency (Bristol stool scale 1-7) ([1]; Stage 2, wash-out, mean (SD), baseline 2.7 (1.20)): 2.8 (1.39)
- Ease of passage (Ease of evacuation scale 1-7) ([1]; Stage 2, wash-out, mean (SD), baseline 3.2 (0.73)): 3.3 (0.81)
- CSBM frequency, randomized cohort ([1]; group later randomized to placebo (n = 9), fixed dose period on drug, baseline 1.6): 3.3 CSBM/week
- CSBM frequency, randomized cohort ([1]; group randomized to treatment (n = 6), fixed dose period, baseline 0.8): 3.2 CSBM/week
- CSBM frequency, randomized cohort ([1]; group randomized to treatment (n = 6), randomized period 4-6 days, baseline 0.8): 2.4 CSBM/week
- CSBM frequency, randomized cohort ([1]; group randomized to treatment (n = 6), washout, baseline 0.8): 0.9 CSBM/week
- Mean dose required for a bowel response ([1]; patients with baseline constipation of <1 CSBM/week): 192 mg
- Mean dose required for a bowel response ([1]; patients with baseline ≥1 CSBM/week): 120 mg
- Circadian rhythm of skin temperature, overall [2]: significant positive impact; also recorded: improved all markers of healthy circadian function
- bioavailability [3]: ~0.1%
- PDHQ ([4]; Stage 2, n = 34, fixed dose): 1.8
- PDHQ [4, 6]: 1.8 (3.34)
- BDI-II ([4]; Stage 2, n = 34, fixed dose): 9.9
- UPDRS Part 2 (Daily living) ([4]; Stage 2, n = 34, fixed dose): 14.7 (9.02)
- MMSE ([4]; Stage 2, n = 34, fixed dose): 28.7
- UPDRS Part 3 (Motor) ([4]; Stage 2, n = 34, fixed dose): 33.3
- UPDRS Part 3 (Motor) [4, 6]: 33.3 (15.20)
- PDHQ ([4]; Stage 2, n = 34, wash-out): 0.9
- BDI-II ([4]; Stage 2, n = 34, wash-out): 8.7
- UPDRS Part 2 (Daily living) ([4]; Stage 2, n = 34, wash-out): 14.1 (8.21)
- MMSE ([4]; Stage 2, n = 34, wash-out): 29.3
- UPDRS Part 3 (Motor) ([4]; Stage 2, n = 34, wash-out): 30.2
- UPDRS Part 3 (Motor) ([4]; Stage 2, n = 34, wash-out, listed as Squalamine (ENT-01)): 30.2 (13.23)
- Dose at which the hallucinations disappeared ([4]; one patient, colonic prokinetic dose 175 mg not yet reached): 100 mg

Reference: patent US20190298740A1, “METHODS AND COMPOSITIONS FOR TREATING HALLUCINATIONS AND CONDITIONS RELATED TO THE SAME” (Enterin, Inc., priority 2018, published 2019)
